Patent publication US20160346249A1 (priority 2012, published 2016)

Experiments:
[1] = Rat pilot developmental toxicity study
Protocol: Clinical observations, body weights, and food consumption were recorded periodically. On GD 20, a laparohysterectomy was performed on each surviving female. The uteri, placentas, and ovaries were examined; gravid uterine weights, the numbers of fetuses, early and late resorptions, total implantations, and corpora lutea were recorded. The fetuses were weighed, sexed, and examined for external malformations and developmental variations.

[2] = 14-day mouse toxicity and toxicokinetic study; conditions: both, Crl:CD-1(ICR) BR, in vivo, po
[3] = 2-week rat toxicology and toxicokinetic study; type: in vivo; conditions: for Cmax / Tmax / AUC(0-t): po; for AUC(0-t): read-out: AUC0-24
[4] = Multiple-dose safety and PK study 25 mg BID and 50 mg BID for 10 days; type: in vivo, human; conditions: for drug accumulation: 10 days; for Cmax / Tmax / half-life / AUC(0-t): male, human, in vivo, healthy male subjects, mean (SD); for AUC(0-t): read-out: AUC0-12
Source text: Twenty-two male subjects were randomized for the study and received study medication.

in vivo = conditions: Crl:CD-1(ICR) BR, mouse, po; for AUC(0-t): AUC0-24
[5] = target: T1, serotonin transporters (SERT) in the human brain (Homo sapiens, UniProt P31645); experiment: Open label PET study with [11C]DASB (DOV 947-007); type: in vivo; conditions: for brain SERT occupancy: 150 mg single oral dose; for Mean (Range) SERT Occupancy, Mean / Mean (Range) SERT Occupancy, Striatum / Mean (Range) SERT Occupancy, Thalamus: EB-1010 150 mg single oral, N = 3, preliminary
T1 construct: from tissue; host or cells: brain of healthy male volunteers, in vivo PET with [11C]DASB
Source text: With PET imaging, uptake inhibitor effects may be measured based on the proportion of SERT sites blocked in the brain. […] Safety was monitored by clinical and laboratory evaluations, including vital signs, physical examination, clinical chemistry, hematology, urinalysis, and ECG.

[6] = female, Crl:CD (SD)IGS BR, rat, in vivo, 10 mg/kg/day, females, 10 mg/kg/day, Day 0
[7] = female, Crl:CD (SD)IGS BR, rat, in vivo, 10 mg/kg/day, females, 10 mg/kg/day, Day 13
[8] = female, Crl:CD (SD)IGS BR, rat, in vivo, 20 mg/kg/day, females, 20 mg/kg/day, Day 0
[9] = female, Crl:CD (SD)IGS BR, rat, in vivo, 20 mg/kg/day, females, 20 mg/kg/day, Day 13
[10] = female, Crl:CD (SD)IGS BR, rat, in vivo, 40 mg/kg/day, females, 40 mg/kg/day, Day 0
[11] = female, Crl:CD (SD)IGS BR, rat, in vivo, 40 mg/kg/day, females, 40 mg/kg/day, Day 13
[12] = male, Crl:CD (SD)IGS BR, rat, in vivo, 10 mg/kg/day, males, 10 mg/kg/day, Day 13
[13] = male, Crl:CD (SD)IGS BR, rat, in vivo, 20 mg/kg/day, males, 20 mg/kg/day, Day 0
[14] = male, Crl:CD (SD)IGS BR, rat, in vivo, 20 mg/kg/day, males, 20 mg/kg/day, Day 13
[15] = male, Crl:CD (SD)IGS BR, rat, in vivo, 40 mg/kg/day, males, 40 mg/kg/day, Day 0
[16] = male, Crl:CD (SD)IGS BR, rat, in vivo, 40 mg/kg/day, males, 40 mg/kg/day, Day 13
[17] = male, Crl:CD(SD)IGS BR, rat, in vivo, 10 mg/kg/day, males, 10 mg/kg/day, Day 0

T1 sequence (P31645 whole entry): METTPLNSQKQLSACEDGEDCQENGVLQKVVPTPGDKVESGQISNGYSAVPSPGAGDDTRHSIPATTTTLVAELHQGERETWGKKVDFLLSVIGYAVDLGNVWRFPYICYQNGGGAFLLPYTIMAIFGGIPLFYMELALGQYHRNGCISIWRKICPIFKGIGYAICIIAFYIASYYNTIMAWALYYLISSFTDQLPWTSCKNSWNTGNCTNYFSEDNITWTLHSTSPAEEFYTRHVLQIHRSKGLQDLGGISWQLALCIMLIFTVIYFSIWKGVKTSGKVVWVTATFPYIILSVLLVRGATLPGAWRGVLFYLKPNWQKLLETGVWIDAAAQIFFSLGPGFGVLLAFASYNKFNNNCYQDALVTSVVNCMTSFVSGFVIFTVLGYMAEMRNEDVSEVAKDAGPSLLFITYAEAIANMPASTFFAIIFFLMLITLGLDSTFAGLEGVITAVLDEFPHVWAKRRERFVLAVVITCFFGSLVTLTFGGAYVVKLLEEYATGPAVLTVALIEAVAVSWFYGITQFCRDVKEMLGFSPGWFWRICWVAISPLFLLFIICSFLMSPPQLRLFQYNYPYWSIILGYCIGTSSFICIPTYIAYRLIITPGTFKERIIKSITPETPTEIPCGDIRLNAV

## Clc1ccc([C@]23CNC[C@H]2C3)cc1Cl [amitifadine, (+)-1-(3,4-dichlorophenyl)-3-azabicyclo[3.1.0]hexane]
[1]; 25 mg/kg/day
  mean fetal weight: statistically significant reduction in mean fetal weight
[1]; 50 mg/kg/day, GD 8, 9 or 10
  maternal mortality: all females in the 50 mg/kg/day group were euthanized in extremis
[2]
  NOAEL at 14 days: 100 mg/kg/day
[3]; both sexes, Crl:CD(SD)IGS BR, rat, in vivo, oral gavage, 14 days, read-out: NOAEL for systemic toxicity
  NOAEL at 14 days: 40 mg/kg/day
[3]; [6]
  Cmax: 1830 ng/mL
  Tmax: 2 h
  AUC(0-t): 11600 ng·h/mL
[3]; [7]
  Cmax: 1150 ng/mL
  Tmax: 2 h
  AUC(0-t): 8190 ng·h/mL
[3]; [8]
  Cmax: 2800 ng/mL
  Tmax: 1 h
  AUC(0-t): 28600 ng·h/mL
[3]; [9]
  Cmax: 2300 ng/mL
  Tmax: 1 h
  AUC(0-t): 22000 ng·h/mL
[3]; [10]
  Cmax: 4440 ng/mL
  Tmax: 4 h
  AUC(0-t): 50600 ng·h/mL
[3]; [11]
  Cmax: 3100 ng/mL
  Tmax: 2 h
  AUC(0-t): 32900 ng·h/mL
[3]; females, 40 mg/kg/day
  increase in mean absolute liver weight: 18%
[3]; [12]
  Cmax: 878 ng/mL
  Tmax: 2 h
  AUC(0-t): 6310 ng·h/mL
[3]; [13]
  Cmax: 3000 ng/mL
  Tmax: 1 h
  AUC(0-t): 17400 ng·h/mL
[3]; [14]
  Tmax: 2 h
  AUC(0-t): 13000 ng·h/mL
[3]; [15]
  Cmax: 3040 ng/mL
  Tmax: 1 h
  AUC(0-t): 34800 ng·h/mL
[3]; [16]
  Cmax: 2730 ng/mL
  Tmax: 1 h
  AUC(0-t): 25600 ng·h/mL
[3]; [17]
  Tmax: 1 h
  AUC(0-t): 7880 ng·h/mL
[3]; males, 40 mg/kg/day
  increase in mean absolute liver weight: 20%
[4]; 25 mg BID
  drug accumulation: 1.27
[4]; 50 mg BID
  drug accumulation: 1.44
[4]; 25 mg, 25 mg BID, Day 1
  Cmax: 327 ng/mL
  Tmax: 0.9 h
  half-life: 3.27 h
  AUC(0-t): 1360 ng·h/mL
[4]; 25 mg, 25 mg BID, Day 10
  Cmax: 388 ng/mL
  Tmax: 1.07 h
  half-life: 3.34 h
  AUC(0-t): 1700 ng·h/mL
[4]; 50 mg, 50 mg BID, Day 1
  Cmax: 496 ng/mL
  half-life: 3.19 h
  AUC(0-t): 2240 ng·h/mL
[4]; 50 mg, 50 mg BID, Day 10
  Cmax: 744 ng/mL
  Tmax: 1.18 h
  half-life: 2.97 h
  AUC(0-t): 3200 ng·h/mL
In vivo; female, 10 mg/kg/day
  AUC(0-t): 2490 ng·h/mL
  Cmax: 323 ng/mL
  Tmax: 2 h
In vivo; female, 30 mg/kg/day
  AUC(0-t): 9920 ng·h/mL
  Cmax: 1140 ng/mL
  Tmax: 2 h
In vivo; female, 100 mg/kg/day
  AUC(0-t): 20200 ng·h/mL
  Tmax: 2 h
In vivo; female, 150 mg/kg/day
  Cmax: 4940 ng/mL
  Tmax: 2 h
In vivo; male, 10 mg/kg/day
  AUC(0-t): 1970 ng·h/mL
  Cmax: 261 ng/mL
  Tmax: 1 h
In vivo; male, 30 mg/kg/day
  AUC(0-t): 12800 ng·h/mL
  Cmax: 1060 ng/mL
  Tmax: 1 h
In vivo; male, 100 mg/kg/day
  AUC(0-t): 22300 ng·h/mL
  Cmax: 3900 ng/mL
  Tmax: 2 h
In vivo; male, 150 mg/kg/day
  AUC(0-t): 71100 ng·h/mL
  Cmax: 5610 ng/mL
  Tmax: 1 h
[5]; about 2 hours
  brain SERT occupancy: approximately 48%
[5]; about 7 hours
  brain SERT occupancy: ~32%
[5]; about 7 hours, listed as EB-1010
  brain SERT occupancy: approximately 32%
[5]; ~2 h
  Mean (Range) SERT Occupancy, Mean: 48 (43-54) %
  Mean (Range) SERT Occupancy, Striatum: 48 (44-53) %
  Mean (Range) SERT Occupancy, Thalamus: 48 (41-55) %
[5]; ~7 h
  Mean (Range) SERT Occupancy, Mean: 32 (23-41) %
  Mean (Range) SERT Occupancy, Striatum: 32 (23-37) %
  Mean (Range) SERT Occupancy, Thalamus: 33 (22-44) %
